Patent US6737383B1, “Herbicidal oxadiazolidines” (priority 1999, dated 2004)

How the values were obtained:
[1] = test system: bamyardgrass; test: Test B flood test barnyardgrass; format: in vivo, Echinochloa crus-galli
Procedure, shortened: (§1)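 Read-out is a visual response score from 0 (no effect) to 10 (complete control), assigned by comparison with untreated controls. Treatment was applied at the 2-leaf stage, and plants stayed in the greenhouse for twelve to sixteen days before scoring.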

[2] = test system: blackgrass; test: Test B pre/postemergence blackgrass; format: in vivo, Alopecurus myosuroides
Procedure, shortened: (§2)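 Herbicidal effect was estimated by eye on a ten-point control scale after plants spent twelve to sixteen days in a greenhouse following soil or foliar treatment. Foliar sprays targeted plants at one to four leaves; all doses were formulated in a non-phytotoxic solvent with surfactant.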

[3] = test system: sugar beet; test: Test B pre/postemergence sugar beet; format: in vivo, Beta vulgaris
Procedure, shortened: as §2

[4] = test system: cocklebur; test: Test B pre/postemergence cocklebur; format: in vivo, Xanthium strumarium
Procedure, shortened: as §2

[5] = test system: corn; test: Test B pre/postemergence corn; format: in vivo, Zea mays
Procedure, shortened: as §2

[6] = test system: soybean; test: Test B pre/postemergence soybean; format: in vivo, Glycine max
Procedure, shortened: as §2

[7] = test system: smallflower flatsedge; test: Test B flood test smallflower flatsedge; format: in vivo, Cyperus difformis
Procedure, shortened: as §1

[8] = test system: wheat; test: Test B pre/postemergence wheat; format: in vivo, Triticum aestivum
Procedure, shortened: as §2

[9] = test system: crabgrass; test: Test B pre/postemergence crabgrass; format: in vivo, Digitaria sanguinalis
Procedure, shortened: as §2

[10] = test system: purple nutsedge; test: Test B pre/postemergence purple nutsedge; format: in vivo, Cyperus rotundus
Procedure, shortened: as §2

[11] = test system: pigweed; test: Test B pre/postemergence pigweed; format: in vivo, Amaranthus retroflexus
Procedure, shortened: as §2

[12] = test system: rape; test: Test B pre/postemergence rape; format: in vivo, Brassica napus
Procedure, shortened: as §2

[13] = test system: wild oat; test: Test B pre/postemergence wild oat; format: in vivo, Avena fatua
Procedure, shortened: as §2

[14] = test system: bedstraw; test: Test B pre/postemergence bedstraw; format: in vivo, Galium aparine; details: Preemergence, Rate 62 g/ha; scale 0 to 10 (0 no effect, 10 complete control)
Procedure, shortened: as §2

[15] = test system: velvetleaf; test: Test B pre/postemergence velvetleaf; format: in vivo, Abutilon theophrasti
Procedure, shortened: as §2

[16] = test system: surinam grass; test: Test B pre/postemergence surinam grass; format: in vivo, Brachiaria decumbens
Procedure, shortened: as §2

[17] = Rate 62 g/ha, flood test species, Pre-emergence, visual evaluation after twelve to sixteen days
[18] = Rate 125 g/ha, under heading Pre-emergence, flood test species, visual evaluation after twelve to sixteen days
[19] = Rate 250 g/ha, Pre-emergence, flood-test species, scale 0 to 10, 0 is no effect, 10 is complete control
[20] = Rate 500 g/ha, Pre-emergence, flood test species, scale 0 to 10 (0 no effect, 10 complete control)
[21] = Postemergence, Rate 125 g/ha, scale 0 to 10, 0 is no effect, 10 is complete control
[22] = Postemergence, Rate 250 g/ha, scale 0 to 10, 0 is no effect, 10 is complete control
[23] = Postemergence, Rate 500 g/ha, scale of 0 to 10 where 0 is no effect and 10 is complete control
[24] = Preemergence, Rate 62 g/ha, scale 0 to 10 (0 no effect, 10 complete control)
[25] = Preemergence, Rate 125 g/ha, scale of 0 to 10 where 0 is no effect and 10 is complete control
[26] = Preemergence, Rate 250 g/ha, scale of 0 to 10 where 0 is no effect and 10 is complete control
[27] = Preemergence, Rate 500 g/ha, scale of 0 to 10 where 0 is no effect and 10 is complete control
[28] = Rate 62 g/ha, Postemergence, scale of 0 to 10 where 0 is no effect and 10 is complete control

CC(C)N(C(=O)n1oc(=O)n(C(C)Cl)c1=O)c1ccc(F)cc1 (centres unmarked) [Compound 393]
5: Plant response rating, Crabgrass [9, 22]
8: Blackgrass plant response rating [2, 23] | Crabgrass plant response rating [9, 23] | Crabgrass plant response rating [9, 27]
3: Plant response rating, Blackgrass [2, 22] | Blackgrass plant response rating [2, 27] | Sugarbeets plant response rating [3, 27] | Crabgrass plant response rating [9, 26] | Plant response rating, Rape [12, 22] | Wild oats plant response rating [13, 27]
10: Redroot pigweed plant response rating [11, 27]
2: Plant response rating, Blackgrass [2, 21] | Plant response rating, Sugarbeets [3, 25] | Sugarbeets plant response rating [3, 26] | Plant response rating, Soybean [6, 22] | Soybean plant response rating [6, 23] | Plant response rating, Crabgrass [9, 25] | Plant response rating, Redroot pigweed [11, 25] | Redroot pigweed plant response rating [11, 26] | B. signalgrass plant response rating [16, 27]
1: Soybean plant response rating [6, 28] | Plant response rating, Crabgrass [9, 21]
7: Sugarbeets plant response rating [3, 23]
0: Plant response rating, Barnyardgrass (0 to 10 scale, 0 is no effect, 10 is complete control) [1, 17] | Barnyardgrass plant response rating (0 to 10 scale, 0 is no effect, 10 is complete control) [1, 18] | Barnyardgrass plant response rating [1, 19] | Barnyardgrass plant response rating [1, 20] | Plant response rating, Blackgrass [2, 24] | Plant response rating, Blackgrass [2, 25] | Blackgrass plant response rating [2, 26] | Blackgrass plant response rating [2, 28] | Plant response rating, Sugarbeets [3, 22] | Plant response rating, Sugarbeets [3, 24] | Sugarbeets plant response rating [3, 28] | Plant response rating, Cocklebur [4, 21] | Plant response rating, Cocklebur [4, 22] | Cocklebur plant response rating [4, 23] | Plant response rating, Cocklebur [4, 24] | Plant response rating, Cocklebur [4, 25] | Cocklebur plant response rating [4, 26] | Cocklebur plant response rating [4, 27] | Cocklebur plant response rating [4, 28] | Plant response rating, Corn [5, 21] | Plant response rating, Corn [5, 22] | Corn plant response rating [5, 23] | Plant response rating, Corn [5, 24] | Plant response rating, Corn [5, 25] | Corn plant response rating [5, 26] | Corn plant response rating [5, 27] | Corn plant response rating [5, 28] | Plant response rating, Soybean [6, 24] | Plant response rating, Soybean [6, 25] | Soybean plant response rating [6, 26] | Soybean plant response rating [6, 27] | Plant response rating, S. Flatsedge (0 to 10 scale, 0 is no effect, 10 is complete control) [7, 17] | S. Flatsedge plant response rating (0 to 10 scale, 0 is no effect, 10 is complete control) [7, 18] | S. Flatsedge plant response rating [7, 19] | S. Flatsedge plant response rating [7, 20] | Wheat plant response rating [8, 23] | Plant response rating, Wheat [8, 24] | Plant response rating, Wheat [8, 25] | Wheat plant response rating [8, 26] | Wheat plant response rating [8, 27] | Wheat plant response rating [8, 28] | Plant response rating, Crabgrass [9, 24] | Crabgrass plant response rating [9, 28] | Plant response rating, Nutsedge [10, 22] | Nutsedge plant response rating [10, 23] | Plant response rating, Nutsedge [10, 24] | Plant response rating, Nutsedge [10, 25] | Nutsedge plant response rating [10, 26] | Nutsedge plant response rating [10, 27] | Nutsedge plant response rating [10, 28] | Plant response rating, Redroot pigweed [11, 22] | Redroot pigweed plant response rating [11, 23] | Plant response rating, Redroot pigweed [11, 24] | Redroot pigweed plant response rating [11, 28] | Plant response rating, Rape [12, 24] | Plant response rating, Rape [12, 25] | Rape plant response rating [12, 26] | Rape plant response rating [12, 27] | Wild oats plant response rating [13, 23] | Plant response rating, Wild oats [13, 24] | Plant response rating, Wild oats [13, 25] | Wild oats plant response rating [13, 26] | Wild oats plant response rating [13, 28] | Plant response rating, Bedstraw [14] | Plant response rating, Velvetleaf [15, 22] | Velvetleaf plant response rating [15, 23] | Plant response rating, Velvetleaf [15, 24] | Plant response rating, Velvetleaf [15, 25] | Velvetleaf plant response rating [15, 26] | Velvetleaf plant response rating [15, 27] | Velvetleaf plant response rating [15, 28] | Plant response rating, B. signalgrass [16, 21] | Plant response rating, B. signalgrass [16, 22] | B. signalgrass plant response rating [16, 23] | Plant response rating, B. signalgrass [16, 24] | Plant response rating, B. signalgrass [16, 25] | B. signalgrass plant response rating [16, 26] | B. signalgrass plant response rating [16, 28]
